Measurements as given in publication PMC10803328 (Scientific Reports, 2024).
Entries after “also recorded” stand apart in the source; their conditions may differ. Like-named read-outs stand apart in the source and are kept apart here.

How the values were obtained:
α7-nAChR = target: α7-nAChR; set-up: method as in PMID 30872534, PMID 24556591; conditions: cited from earlier work; for Ki: in vitro binding assay, literature
α4β2 nAChR = target: α4β2 nAChR; set-up: method as in PMID 30872534, PMID 24556591; conditions: in vitro binding assay, literature; cited from earlier work
PSAM^4-GlyR [1] = system: PSAM^4-GlyR; set-up: method as in PMID 30872534; conditions: rhesus monkey, globus pallidus internal region (GPi), PSAM^4-GlyR activated by the ligand; cited from earlier work
PSAM^4-GlyR [2] = target: T1, PSAM^4-GlyR (Homo sapiens, UniProt P23415+P36544, L131G/Q139L/Y217F); set-up: expressed in transfected cells; method as in PMID 30872534, PMID 24556591, PMID 36279419; conditions: read-out: PSAM^4-GlyR (Ki); in vitro binding assay, literature; cited from earlier work
T1 sequence (P36544+P23415 fused P36544:L131G/P36544:Q139L/P36544:Y217F): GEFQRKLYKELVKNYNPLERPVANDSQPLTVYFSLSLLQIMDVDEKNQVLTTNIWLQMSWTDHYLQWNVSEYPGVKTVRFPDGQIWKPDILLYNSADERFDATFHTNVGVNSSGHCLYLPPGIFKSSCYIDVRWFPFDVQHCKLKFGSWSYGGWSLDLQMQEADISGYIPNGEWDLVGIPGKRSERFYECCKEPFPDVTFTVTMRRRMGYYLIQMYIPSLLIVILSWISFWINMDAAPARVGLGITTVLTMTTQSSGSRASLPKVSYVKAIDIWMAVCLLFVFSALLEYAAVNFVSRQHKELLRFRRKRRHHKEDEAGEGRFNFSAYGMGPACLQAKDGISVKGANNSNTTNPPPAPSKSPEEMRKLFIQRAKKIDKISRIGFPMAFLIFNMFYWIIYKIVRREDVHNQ

P-gp = conditions: cited from earlier work
PSAM^4-GlyR [3] = system: PSAM^4-GlyR; set-up: method as in PMID 30872534; conditions: PSAM^4-GlyR transduced mouse; cited from earlier work
PSAM^4-GlyR [4] = system: PSAM^4-GlyR; set-up: method as in PMID 30872534; conditions: area CA1 of mouse hippocampal neurons, acting on PSAM^4-GlyR; cited from earlier work
PSAM^4-GlyR [5] = target: T1, PSAM^4-GlyR; assay: Competitive binding assay with [^3H]ASEM on membranes of HEK-293 cells transduced with PSAM^4-GlyR; set-up: expressed in transfected cells; host or cells: HEK-293 (membrane fraction)
Method: HEK-293 cells were transduced with plasmids (5 μg per dish) of encoding PSAM^4-GlyR (in pcDNA3.1) or a control vector (GFP) and harvested 48 h after transduction. Cells were suspended in Tris–HCl buffer (50 mM, pH 7.4) supplemented with a protease inhibitor cocktail (1:100, Sigma-Aldrich; St Louis, MO). HEK-293 cells were disrupted with a Polytron homogenizer (Kinematica; Basel, Switzerland). Homogenates were centrifuged at 48,000g (50 min, 4 °C) and washed twice in the same conditions to isolate the membrane fraction. Protein was quantified by the bicinchoninic acid method (Pierce, ThermoFisher Scientific, MA). […] In all cases, free and membrane-bound radioligand were separated by rapid filtration of 500-μL aliquots in a 96-well plate harvester (Brandel; Gaithersburg, MD) and washed with ice-cold Tris–HCl buffer (2 mL). Microscint-20 scintillation liquid (65 μL per well, PerkinElmer; Boston, MA) was added to the filter plates. Plates were incubated overnight at room temperature and radioactivity counts were determined in a MicroBeta2 plate counter (PerkinElmer) with an efficiency of 41%. One-site competition curves were fitted using Prism 7 (GraphPad Software; La Jolla, CA). Ki values were calculated using the Cheng-Prusoff equation.

[6] = Measurement of apparent pKa by radiotracer partition; assay type: physicochemical; conditions: cyclohexane / sodium phosphate buffer partition; cyclohexane / phosphate buffers pH 3.0-10.5, n = 3
Method: The method was similar to that followed previously for other radiotracers. Sodium phosphate buffers (0.15 M), with pH values of 3.0, 3.5, 4.0, 4.5, 5.0, 5.5, 6.0, 6.5, 7.0, 7.4, 8.0, 8.5, 9.0, 9.5, 10.0, and 10.5, were prepared from 0.15 M NaH2PO4 and 0.1 M Na2HPO4 and distributed (1 mL per tube) as the aqueous phase. [^11C]uPSEM, formulated in ethanol (20 µL, 2.4 ± 0.3 MBq, n = 48), was added to each tube. Triple sets of such tubes were prepared simultaneously. Cyclohexane (1.0 mL) was added to each of the tubes containing the buffer and the [^11C]uPSEM and then vigorously vortexed for 1 min. The tubes were then centrifuged for one minute. The two phases in each tube were separated, sampled (50 µL aqueous, 200 µL organic) and counted in a γ-counter. Distribution coefficients at each pH were calculated by dividing the counts detected in the organic phase by the total activity present in both phases. These distribution coefficients were plotted versus pH and nonlinear regression analysis applied with GraphPad Prism version 4.03 for windows (GraphPad Software; San Diego, CA) using “One site competition” curve-fitting. […] The radiochemical purity of the [^11C]uPSEM preparation was 98.8% as determined by radio-HPLC on an X-Terra […] column (10 µm, 7.8 × 300 mm; Waters Corp.) and a mobile phase of MeOH:H2O:Et3N (55:45:0.1, by vol) at 5.0 mL/min.

Row | SMILES | Ki (α7-nAChR) [nM] | Ki (α4β2 nAChR) [nM] | effect on neuronal firing rate (PSAM^4-GlyR [1]) | Ki (PSAM^4-GlyR [2]) [nM] | affinity to α7-nAChRs (in words) (α7-nAChR) | P-gp substrate in vitro (P-gp) | blocking of [^18F]ASEM binding in brain (PSAM^4-GlyR [3]) | neuronal silencing (PSAM^4-GlyR [4]) | Ki (PSAM^4-GlyR [5]) [nM] | pKa [6]
1 | O=S1(=O)c2cc(N3CCN4CCC3CC4)ccc2-c2cccc(F)c21 [ASEM] | 0.3 | 4000 | – | – | – | – | – | – | – | –
2 | c1cnc2cc3c(cc2n1)[C@@H]1CNC[C@H]3C1 [Varenicline, varenicline] | – | – | reduces neuronal firing rate | – | – | – | – | – | – | –
3 | Cn1c(=O)cnc2cc3c(cc21)C1CNCC3C1 (centres unmarked) [uPSEM792, 1-Methyl-1,6,7,8,9,10-hexahydro-2H-6,10-methanoazepino[4,5-g]quinoxalin-2-one] | 8000 | – | – | 0.7 | low affinity | not a P-gp substrate in vitro; also recorded: not to be a P-gp substrate | able to block [^18F]ASEM binding | Neuronal silencing has been shown | 2.62 | 9.92 ± 0.05
